Experiments:
Test in all cases: cells
Assay type in all cases: functional, cell-based, Homo sapiens
NCI-H1770 = details: Homo sapiens, NCI-H1770
Description: SANGER: Inhibition of human NCI-H1770 cell growth in a cell viability assay.

NOS-1 = details: Homo sapiens, NOS-1
Description: SANGER: Inhibition of human NOS-1 cell growth in a cell viability assay.

U-118-MG = details: Homo sapiens, U-118-MG
Description: SANGER: Inhibition of human U-118-MG cell growth in a cell viability assay.

BEN = details: Homo sapiens, BEN
Description: SANGER: Inhibition of human BEN cell growth in a cell viability assay.

ChaGo-K-1 = details: Homo sapiens, ChaGo-K-1
Description: SANGER: Inhibition of human ChaGo-K-1 cell growth in a cell viability assay.

WM-115 = details: Homo sapiens, WM-115
Description: SANGER: Inhibition of human WM-115 cell growth in a cell viability assay.

CAPAN-1 = details: Homo sapiens, CAPAN-1
Description: SANGER: Inhibition of human CAPAN-1 cell growth in a cell viability assay.

NCI-H1650 = details: Homo sapiens, NCI-H1650
Description: SANGER: Inhibition of human NCI-H1650 cell growth in a cell viability assay.

COR-L105 = details: Homo sapiens, COR-L105
Description: SANGER: Inhibition of human COR-L105 cell growth in a cell viability assay.

A-375 = details: Homo sapiens, A-375
Description: SANGER: Inhibition of human A375 cell growth in a cell viability assay.

DU-4475 = details: Homo sapiens, DU-4475
Description: SANGER: Inhibition of human DU-4475 cell growth in a cell viability assay.

NCI-H1355 = details: Homo sapiens, NCI-H1355
Description: SANGER: Inhibition of human NCI-H1355 cell growth in a cell viability assay.

RS4-11 = details: Homo sapiens, RS4-11
Description: SANGER: Inhibition of human RS4-11 cell growth in a cell viability assay.

GP5d = details: Homo sapiens, GP5d
Description: SANGER: Inhibition of human GP5d cell growth in a cell viability assay.

BHY = details: Homo sapiens, BHY
Description: SANGER: Inhibition of human BHY cell growth in a cell viability assay.

A101D = details: Homo sapiens, A101D
Description: SANGER: Inhibition of human A101D cell growth in a cell viability assay.

NCI-H1155 = details: Homo sapiens, NCI-H1155
Description: SANGER: Inhibition of human NCI-H1155 cell growth in a cell viability assay.

MKN-7 = details: Homo sapiens, MKN-7
Description: SANGER: Inhibition of human MKN7 cell growth in a cell viability assay.

KURAMOCHI = details: Homo sapiens, KURAMOCHI
Description: SANGER: Inhibition of human KURAMOCHI cell growth in a cell viability assay.

Ca9-22 = details: Homo sapiens, Ca9-22
Description: SANGER: Inhibition of human Ca9-22 cell growth in a cell viability assay.

NCI-H522 = details: Homo sapiens, NCI-H522
Description: SANGER: Inhibition of human NCI-H522 cell growth in a cell viability assay.

S-117 = details: Homo sapiens, S-117
Description: SANGER: Inhibition of human S-117 cell growth in a cell viability assay.

LB1047-RCC = details: Homo sapiens, LB1047-RCC
Description: SANGER: Inhibition of human LB1047-RCC cell growth in a cell viability assay.

BB49-HNC = details: Homo sapiens, BB49-HNC
Description: SANGER: Inhibition of human BB49-HNC cell growth in a cell viability assay.

SCC-9 = details: Homo sapiens, SCC-9
Description: SANGER: Inhibition of human SCC-9 cell growth in a cell viability assay.

NCI-H82 = details: Homo sapiens, NCI-H82
Description: SANGER: Inhibition of human NCI-H82 cell growth in a cell viability assay.

5637 = details: Homo sapiens
Description: SANGER: Inhibition of human 5637 cell growth in a cell viability assay.

LAN-6 = details: Homo sapiens, LAN-6
Description: SANGER: Inhibition of human LAN-6 cell growth in a cell viability assay.

Panc1005 = details: Homo sapiens, Panc1005
Description: SANGER: Inhibition of human PANC-10-05 cell growth in a cell viability assay.

EGI-1 = details: Homo sapiens, EGI-1
Description: SANGER: Inhibition of human EGI-1 cell growth in a cell viability assay.

KP-4 = details: Homo sapiens, KP-4
Description: SANGER: Inhibition of human KP-4 cell growth in a cell viability assay.

AGS = details: Homo sapiens, AGS
Description: SANGER: Inhibition of human AGS cell growth in a cell viability assay.

NCI-H1573 = details: Homo sapiens, NCI-H1573
Description: SANGER: Inhibition of human NCI-H1573 cell growth in a cell viability assay.

NCI-H69 = details: Homo sapiens, NCI-H69
Description: SANGER: Inhibition of human NCI-H69 cell growth in a cell viability assay.

NCI-H1623 = details: Homo sapiens, NCI-H1623
Description: SANGER: Inhibition of human NCI-H1623 cell growth in a cell viability assay.

NY = details: Homo sapiens, NY
Description: SANGER: Inhibition of human NY cell growth in a cell viability assay.

NCI-H1437 = details: Homo sapiens, NCI-H1437
Description: SANGER: Inhibition of human NCI-H1437 cell growth in a cell viability assay.

LN-405 = details: Homo sapiens, LN-405
Description: SANGER: Inhibition of human LN-405 cell growth in a cell viability assay.

COLO-741 = details: Homo sapiens, COLO-741
Description: SANGER: Inhibition of human COLO-741 cell growth in a cell viability assay.

GI-ME-N = details: Homo sapiens, GI-ME-N
Description: SANGER: Inhibition of human GI-ME-N cell growth in a cell viability assay.

HD-MY-Z = details: Homo sapiens, HD-MY-Z
Description: SANGER: Inhibition of human HD-MY-Z cell growth in a cell viability assay.

## CC(C)CCN1c2nc(Nc3cc(F)c(O)c(F)c3)ncc2N(C)C(=O)C1C (stereo not drawn)
NCI-H1770
  IC50: > 5 µM
NOS-1
  IC50: > 5 µM
U-118-MG
  IC50: > 5 µM
BEN
  IC50: > 5 µM
ChaGo-K-1
  IC50: > 5 µM
WM-115
  IC50: > 5 µM
CAPAN-1
  IC50: > 5 µM
NCI-H1650
  IC50: > 5 µM
COR-L105
  IC50: > 5 µM
A-375
  IC50: 4.05 µM
DU-4475
  IC50: 0.504 µM
NCI-H1355
  IC50: > 5 µM
RS4-11
  IC50: > 5 µM
GP5d
  IC50: > 5 µM
BHY
  IC50: > 5 µM
A101D
  IC50: 4.97 µM
NCI-H1155
  IC50: > 5 µM
MKN-7
  IC50: > 5 µM
KURAMOCHI
  IC50: > 5 µM
Ca9-22
  IC50: 2.66 µM
NCI-H522
  IC50: > 5 µM
S-117
  IC50: > 5 µM
LB1047-RCC
  IC50: 4.1 µM
BB49-HNC
  IC50: > 5 µM
SCC-9
  IC50: > 5 µM
NCI-H82
  IC50: > 5 µM
5637
  IC50: 4.61 µM
LAN-6
  IC50: > 5 µM
Panc1005
  IC50: > 5 µM
EGI-1
  IC50: > 5 µM
KP-4
  IC50: > 5 µM
AGS
  IC50: 2.34 µM
NCI-H1573
  IC50: > 5 µM
NCI-H69
  IC50: 2.72 µM
NCI-H1623
  IC50: > 5 µM
NY
  IC50: > 5 µM
NCI-H1437
  IC50: 4.93 µM
LN-405
  IC50: > 5 µM
COLO-741
  IC50: > 5 µM
GI-ME-N
  IC50: > 5 µM
HD-MY-Z
  IC50: 3.37 µM

## CCN(CC)CCCCNc1ncc2cc(-c3cc(OC)cc(OC)c3)c(NC(=O)NC(C)(C)C)nc2n1 [PD-173074]
NCI-H1770
  IC50: > 2 µM
NOS-1
  IC50: > 2 µM
U-118-MG
  IC50: > 2 µM
BEN
  IC50: > 2 µM
ChaGo-K-1
  IC50: > 2 µM
WM-115
  IC50: > 2 µM
CAPAN-1
  IC50: > 2 µM
NCI-H1650
  IC50: > 2 µM
COR-L105
  IC50: > 2 µM
A-375
  IC50: > 2 µM
DU-4475
  IC50: > 2 µM
NCI-H1355
  IC50: > 2 µM
RS4-11
  IC50: 1.34 µM
GP5d
  IC50: > 2 µM
BHY
  IC50: > 2 µM
A101D
  IC50: > 2 µM
NCI-H1155
  IC50: > 2 µM
MKN-7
  IC50: > 2 µM
KURAMOCHI
  IC50: > 2 µM
Ca9-22
  IC50: > 2 µM
NCI-H522
  IC50: > 2 µM
S-117
  IC50: > 2 µM
LB1047-RCC
  IC50: > 2 µM
BB49-HNC
  IC50: > 2 µM
SCC-9
  IC50: > 2 µM
NCI-H82
  IC50: > 2 µM
5637
  IC50: > 2 µM
LAN-6
  IC50: > 2 µM
Panc1005
  IC50: > 2 µM
EGI-1
  IC50: > 2 µM
KP-4
  IC50: > 2 µM
AGS
  IC50: > 2 µM
NCI-H1573
  IC50: > 2 µM
NCI-H69
  IC50: > 2 µM
NCI-H1623
  IC50: > 2 µM
NY
  IC50: > 2 µM
NCI-H1437
  IC50: > 2 µM
LN-405
  IC50: > 2 µM
COLO-741
  IC50: > 2 µM
GI-ME-N
  IC50: > 2 µM
HD-MY-Z
  IC50: > 2 µM

## COc1cc2c(Nc3ccc(NC(=O)c4ccccc4)cc3)ncnc2cc1OCCCN1CCOCC1
NCI-H1770
  IC50: > 4 µM
NOS-1
  IC50: > 4 µM
U-118-MG
  IC50: > 4 µM
BEN
  IC50: > 4 µM
ChaGo-K-1
  IC50: > 4 µM
WM-115
  IC50: > 4 µM
CAPAN-1
  IC50: > 4 µM
NCI-H1650
  IC50: > 4 µM
COR-L105
  IC50: > 4 µM
A-375
  IC50: 3.85 µM
DU-4475
  IC50: > 4 µM
NCI-H1355
  IC50: > 4 µM
RS4-11
  IC50: 0.554 µM
GP5d
  IC50: > 4 µM
BHY
  IC50: > 4 µM
A101D
  IC50: > 4 µM
NCI-H1155
  IC50: 3.04 µM
MKN-7
  IC50: > 4 µM
KURAMOCHI
  IC50: > 4 µM
Ca9-22
  IC50: 3.29 µM
NCI-H522
  IC50: > 4 µM
S-117
  IC50: > 4 µM
LB1047-RCC
  IC50: > 4 µM
BB49-HNC
  IC50: > 4 µM
SCC-9
  IC50: > 4 µM
NCI-H82
  IC50: > 4 µM
5637
  IC50: > 4 µM
LAN-6
  IC50: > 4 µM
Panc1005
  IC50: > 4 µM
EGI-1
  IC50: > 4 µM
KP-4
  IC50: > 4 µM
AGS
  IC50: > 4 µM
NCI-H1573
  IC50: > 4 µM
NCI-H69
  IC50: > 4 µM
NCI-H1623
  IC50: > 4 µM
NY
  IC50: > 4 µM
NCI-H1437
  IC50: > 4 µM
LN-405
  IC50: > 4 µM
COLO-741
  IC50: > 4 µM
GI-ME-N
  IC50: > 4 µM
HD-MY-Z
  IC50: > 4 µM

From ChEMBL document CHEMBL1201861, “Genomics of Drug Sensitity in Cancer screening data, Wellcome Trust Sanger Institute”
